{"source": "paper PMC2001878", "about": "“Pharmacokinetic studies with zinc(II)-phthalocyanine in tumour-bearing mice” (British Journal of Cancer, 1987)", "key": {"[1]": {"set-up": "method as in Tralau et al., 1987", "conditions": "i.v., ref Tralau et al., 1987, cited from earlier work"}, "[2]": {"set-up": "method as in Tomio et al. (1982)", "conditions": "Wistar rats; ref Tomio et al. (1982); cited from earlier work"}, "[3]": {"experiment": "Serum concentration time course after i.p. injection of liposomal Zn-Pc in tumour-bearing mice", "format": "in vivo, BALB/c mice", "conditions": "0.5 mg kg-1 i.p. in DPPC liposomes, mice bearing MS-2 fibrosarcoma", "text": "Br. J. Cancer (1987), 56, 597~~~~~~ ~~-60?TeMcilnPssLd,18 Pharmacokinetic studies with zinc(II)-phthalocyanine in tumour-bearing mice E. Reddi, G. Lo Castro, R. Biolo & G. Jori Department of Biology via Loredan 10, University of Padova, 1-35131 Padova, Italy. Summary Zn(II)-phthalocyanine (Zn-Pc) incorporated into unilamellar liposomes of dipalmitoyl- phosphatidylcholine has been injected intraperitoneally (0.5mgkg-1) to BALB/c mice bearing a transplanted MS-2 fibrosarcoma. […] Several normal tissues take up the drug within 3 hours after administration but release it almost completely after 24-48 hours. […] The results are discussed in terms of a possible use of Zn-Pc as a photosensitizer in the photodynamic therapy of tumours. Haematoporphyrin and haematoporphyrin derivative (HpD) are presently used as sensitizers for the specific destruction of tumours by photodynamic therapy (PDT) (Moan, 1986; Spikes & Jori, 1987). Although the technique is being applied for the treatment of a variety of neoplasias at both the experimental and clinical level (Dougherty, 1984), PDT is facing some problems and/or limitations. Thus, HpD as it is prepared from Hp (Lipson et al., 1961) is a complex mixture of porphyrins, whose composition is often not reproduced in different preparations and may change as a function of various experimental parameters (Bonnett et al., 1981; Dougherty, 1983). […] Moreover, PDT is usually performed by irradiation with 620-630 nm light; unfortunately, the molar absorptivity of Hp or HpD in this wavelength range is very low (< 103 M- 1 cm- 1). […] Pharmacokinetic studies The Zn-Pc was injected- i.p. into tumour-bearing mice after incorporation of the dye into small unilamellar liposomes of DPPC following the procedure described by Valduga et al. (1987): The Zn-Pc/DPPC ratio was 1:36 on a molar basis, as assessed from the weighed amount of phospholipid and absorbance measurements at 680 nm for Zn-Pc (E= 1.68 x 105 M-1 cm- at 673 nm). […]"}, "[4]": {"experiment": "Elimination pathway: analysis of faeces and urine of rats in metabolic cages", "format": "in vivo, Wistar albino rats", "conditions": "rapid clearance phase"}, "serum lipoproteins": {"tested_on": "serum lipoproteins", "experiment": "Sephacryl S-300 chromatography of mouse serum after Zn-Pc administration", "format": "in vivo, BALB/c mice", "conditions": "sera taken between 1 h and 1 week after i.p. administration; second protein peak on Sephacryl S-300", "text": "Br. J. Cancer (1987), 56, 597~~~~~~ ~~-60?TeMcilnPssLd,18 Pharmacokinetic studies with zinc(II)-phthalocyanine in tumour-bearing mice E. Reddi, G. Lo Castro, R. Biolo & G. Jori Department of Biology via Loredan 10, University of Padova, 1-35131 Padova, Italy. Summary Zn(II)-phthalocyanine (Zn-Pc) incorporated into unilamellar liposomes of dipalmitoyl- phosphatidylcholine has been injected intraperitoneally (0.5mgkg-1) to BALB/c mice bearing a transplanted MS-2 fibrosarcoma. […] Several normal tissues take up the drug within 3 hours after administration but release it almost completely after 24-48 hours. […] The results are discussed in terms of a possible use of Zn-Pc as a photosensitizer in the photodynamic therapy of tumours. Haematoporphyrin and haematoporphyrin derivative (HpD) are presently used as sensitizers for the specific destruction of tumours by photodynamic therapy (PDT) (Moan, 1986; Spikes & Jori, 1987). […] Pharmacokinetic studies The Zn-Pc was injected- i.p. into tumour-bearing mice after incorporation of the dye into small unilamellar liposomes of DPPC following the procedure described by Valduga et al. (1987): The Zn-Pc/DPPC ratio was 1:36 on a molar basis, as assessed from the weighed amount of phospholipid and absorbance measurements at 680 nm for Zn-Pc (E= 1.68 x 105 M-1 cm- at 673 nm). […]"}, "HDL": {"tested_on": "HDL", "experiment": "In vitro incubation of human serum with Zn-Pc incorporated into DPPC liposomes", "format": "in vitro ADME", "conditions": "Reddi et al., unpublished results"}, "[5]": {"experiment": "Recovery of Zn-Pc from tumour and normal tissues of tumour-bearing mice", "format": "in vivo, BALB/c mice", "text": "Br. J. Cancer (1987), 56, 597~~~~~~ ~~-60?TeMcilnPssLd,18 Pharmacokinetic studies with zinc(II)-phthalocyanine in tumour-bearing mice E. Reddi, G. Lo Castro, R. Biolo & G. Jori Department of Biology via Loredan 10, University of Padova, 1-35131 Padova, Italy. Summary Zn(II)-phthalocyanine (Zn-Pc) incorporated into unilamellar liposomes of dipalmitoyl- phosphatidylcholine has been injected intraperitoneally (0.5mgkg-1) to BALB/c mice bearing a transplanted MS-2 fibrosarcoma. […] Several normal tissues take up the drug within 3 hours after administration but release it almost completely after 24-48 hours. […] The results are discussed in terms of a possible use of Zn-Pc as a photosensitizer in the photodynamic therapy of tumours. Haematoporphyrin and haematoporphyrin derivative (HpD) are presently used as sensitizers for the specific destruction of tumours by photodynamic therapy (PDT) (Moan, 1986; Spikes & Jori, 1987). Although the technique is being applied for the treatment of a variety of neoplasias at both the experimental and clinical level (Dougherty, 1984), PDT is facing some problems and/or limitations. Thus, HpD as it is prepared from Hp (Lipson et al., 1961) is a complex mixture of porphyrins, whose composition is often not reproduced in different preparations and may change as a function of various experimental parameters (Bonnett et al., 1981; Dougherty, 1983). […] Moreover, PDT is usually performed by irradiation with 620-630 nm light; unfortunately, the molar absorptivity of Hp or HpD in this wavelength range is very low (< 103 M- 1 cm- 1). […] The ability of phthalocyanines and some of their metal derivatives to act as efficient photosensitizers of simple biological substrates (Spikes & Bommer, 1986) and cultured cells (Ben-Hur & Rosenthal, 1985; Chan et al., 1986) has been documented. Finally, Rousseau et al. (1985) have reported that tetra- sulphophthalocyanines (TSPc) can accumulate in a mammary adenocarcinoma in rats. While tetrasulphophthalocyanines are suitable for in vivo studies because of their high water-solubility, serious problems may arise owing to the low degree of purity. Actually, the presently adopted procedures for sulfonation of phthalocyanines lead to mixtures of mono-, di-, tri- and tetra-sulphonated compounds (Linstead & Weiss, 1950; Moser & Thomas, 1983). In general, underivatized phthalocyanines can be obtained with a very high purity and display a good efficiency in the generation of activated oxygen species (Maillard et al., 1980; Wu et al., 1985). […] In this paper, we describe the pharmacokinetic behaviour of liposome-bound Zn- phthalocyanine injected into. BALB/c mice bearing a transplanted fibrosarcoma. Materials and methods Chemicals Zn2 +-phthalocyanine (Zn-Pc) was supplied by Ciba-Geigy (Switzerland) and used without further purification. […] Dipalmitoyl- phosphatidylcholine (DPPC), over 98% pure, was a product of Sigma Chemical Co.; sodium dodecylsulphate (SDS) and Sephacryl S-300 were purchased from Merck and Pharmacia, respectively. […] Pharmacokinetic studies The Zn-Pc was injected- i.p. into tumour-bearing mice after incorporation of the dye into small unilamellar liposomes of DPPC following the procedure described by Valduga et al. (1987): The Zn-Pc/DPPC ratio was 1:36 on a molar basis, as assessed from the weighed amount of phospholipid and absorbance measurements at 680 nm for Zn-Pc (E= 1.68 x 105 M-1 cm- at 673 nm). […]"}}, "note": "“Also recorded” adds a separate entry of the source.", "data": [{"compound": "tetrasulphophthalocyanines [TSPc]", "values": [{"measurement": "time of accumulation in tumour", "setting": "[1]; fibrosarcoma implanted s.c. in the flank", "value": "1 to 3", "unit": "h"}, {"measurement": "time to complete disappearance from serum", "setting": "[1]", "value": "≤ 3", "unit": "h"}]}, {"compound": "CC1=C(CCC(=O)O)c2cc3[nH]c(cc4nc(cc5[nH]c(cc1n2)c(C)c5C(C)O)C(C)=C4C(C)O)c(C)c3CCC(=O)O", "note": "(centres unmarked) [haematoporphyrin]", "values": [{"measurement": "fraction of totally eliminated drug recovered in the faeces", "setting": "[2]", "value": "at least 98%"}]}, {"compound": "[Zn+2].c1ccc2c(c1)-c1nc-2nc2[n-]c(nc3nc([n-]c4nc(n1)-c1ccccc1-4)-c1ccccc1-3)c1ccccc21", "note": "[Zn-Pc, Zn(II)-phthalocyanine]", "values": [{"measurement": "serum half-life (fast phase)", "setting": "[3]", "value": "approximately 9 hours"}, {"measurement": "time of maximum serum concentration after administration", "setting": "[3]", "value": 3, "unit": "h"}, {"measurement": "fraction of Zn-Pc eliminated from serum in the fast phase", "setting": "[3]; biphasic clearance", "value": "approximately 60%"}, {"measurement": "elimination pathway from serum", "setting": "[4]", "value": "almost exclusively via the bile-gut pathway"}, {"measurement": "serum protein class transporting the drug", "setting": "serum lipoproteins", "value": "specifically transported by serum lipoproteins; also recorded: specifically associated with the second protein peak"}, {"measurement": "fraction of drug bound by HDL", "setting": "HDL", "value": "at least 70%"}, {"measurement": "time of almost complete release from normal tissues", "setting": "[5]; 0.5 mg kg-1 i.p.", "value": "24 to 48", "unit": "h"}, {"measurement": "time of maximum tumour concentration", "setting": "[5]; MS-2 fibrosarcoma, 0.5 mg kg-1 i.p. in DPPC liposomes", "value": "18 to 24", "unit": "h"}, {"measurement": "ratio between Zn-Pc levels in tumour and muscle", "setting": "[5]; at 18-24 h (24 h) after 0.5 mg kg-1 i.p., muscle = surrounding normal tissue", "value": "approximately 7.5"}, {"measurement": "time of uptake by several normal tissues after administration", "setting": "[5]; liver, kidneys, spleen, lungs, muscle, 0.5 mg kg-1 i.p.", "value": "≤ 3", "unit": "h"}, {"measurement": "skin concentration of Zn-Pc", "setting": "[5]; mouse skin, between 1 h and 168 h after administration, 0.5 mg kg-1 i.p.", "value": "≤ 0.1", "unit": "pug g- I tissue"}]}]}
